# According to patent US10793568B2, “Hormone receptor modulators for treating metabolic conditions and disorders” (ARDELYX, INC., priority 2016, dated 2020):
# What was measured:
# [1] = target: human Farnesoid X receptor ligand-binding domain/Gal4 DNA binding domain chimera (Homo sapiens (Human), UniProt Q96RI1); assay: Cell-based assay of FXR activation (FXR-UAS-bla HEK 293T beta-lactamase reporter); details: cellular FXR beta-lactamase reporter assay; for Emax: HEK-293T, extent of activation relative to GW4064, read-out: % Efficacy; for EC50: FXR-UAS-bla HEK 293T cells, 16 h, pEC50 = -log EC50
# Sequence of human Farnesoid X receptor ligand-binding domain/Gal4 DNA binding domain chimera (Q96RI1 262-486, change not shown): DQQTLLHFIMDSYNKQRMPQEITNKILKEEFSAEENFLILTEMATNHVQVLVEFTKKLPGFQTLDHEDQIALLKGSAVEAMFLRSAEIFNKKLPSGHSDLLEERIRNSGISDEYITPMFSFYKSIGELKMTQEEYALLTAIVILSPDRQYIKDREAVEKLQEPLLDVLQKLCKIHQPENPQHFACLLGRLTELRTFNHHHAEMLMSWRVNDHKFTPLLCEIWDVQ
# Sequence of human Farnesoid X receptor ligand-binding domain/Gal4 DNA binding domain chimera (P04386 1-147 partner): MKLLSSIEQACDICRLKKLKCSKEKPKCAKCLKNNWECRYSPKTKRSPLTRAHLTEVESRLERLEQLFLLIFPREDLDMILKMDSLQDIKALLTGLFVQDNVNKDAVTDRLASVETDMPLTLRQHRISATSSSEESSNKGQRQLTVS
# Method in brief: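 Readout is cleavage of the CCF4 FRET substrate (409 nm excitation, blue 447 nm signal) by beta-lactamase, expressed under UAS control after a Gal4–human FXR LBD chimera is activated in HEK 293T cells. Compounds were added as 3-fold dilutions for 16 h at 37 °C in 2% charcoal-stripped FBS medium. Curves were fit to a 3-parameter logistic equation to give pEC50, with % activation relative to GW4064.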
# [2] = target: ligand binding domain of human FXR (Homo sapiens (Human), UniProt Q96RI1); assay: FXR ligand binding assay (LanthaScreen TR-FRET, SRC2-2 peptide recruitment); details: for pEC50: -log EC50, concentration required to produce 50% activation; for Emax: extent of activation relative to GW4064, read-out: % Efficacy
# Sequence of ligand binding domain of human FXR (Q96RI1 262-486): as the sequence (Q96RI1 262-486, change not shown) above
SMILES,Emax [1] [%],EC50 [1] [nM],pEC50 [2],Emax [2] [%]
"O=C(NS(=O)(=O)C1CCOC1)c1ccc(N2C(=O)[C@@H]3C[C@H]2C[C@H]3OCc2c(-c3c(Cl)cccc3Cl)noc2C2CC2)cc1 (stereo partly drawn) [Compound I-340, 4-((1S,4R,5R)-5-((5-cyclopropyl-3-(2,6-dichlorophenyl)isoxazol-4-yl)methoxy)-3-oxo-2-azabicyclo[2.2.1]heptan-2-yl)-N-((tetrahydrofuran-3-yl)sulfonyl)benzamide]",110,7.94,8.8,182
"O=C(O)c1ccc(N2C(=O)[C@@H]3C[C@H]2C[C@H]3OCc2c(-c3c(Cl)cccc3Cl)noc2C2CC2)cc1C1CC1 [Compound I-319, 2-cyclopropyl-4-[(1S,4R,5R)-5-{[5-cyclopropyl-3-(2,6-dichlorophenyl)-1,2-oxazol-4-yl]methoxy}-3-oxo-2-azabicyclo[2.2.1]heptan-2-yl]benzoic Acid]",113,10,7.4,118
"O=C(O)c1cc(OC(F)(F)F)c2nc(N3C[C@@H]4C[C@H]3C[C@H]4OC(=O)c3c(-c4ccccc4C(F)(F)F)noc3C3CC3)sc2c1 [Compound I-9, 2-[(1S,4S,5R)-5-{5-cyclopropyl-3-[2-(trifluoromethyl)phenyl]-1,2-oxazole-4-carbonyloxy}-2-azabicyclo[2.2.1]heptan-2-yl]-4-(trifluoromethoxy)-1,3-benzothiazole-6-carboxylic Acid]",107,5.01,7.1,172
"CC(CC(=O)O)c1ccc(N2C[C@@H]3C[C@H]2C[C@H]3OCc2c(-c3c(Cl)cccc3Cl)noc2C2CC2)c(F)c1 (stereo partly drawn) [Compound I-152, 3-{4-[(1S,4S,5R)-5-{[5-cyclopropyl-3-(2,6-dichlorophenyl)-1,2-oxazol-4-yl]methoxy}-2-azabicyclo[2.2.1]heptan-2-yl]-3-fluorophenyl}butanoic Acid]",105,5.01,–,132
"COC(=O)c1ccc(N2C[C@@H]3C[C@H]2C[C@H]3OCc2c(-c3c(Cl)cccc3Cl)noc2C2CC2)cc1F [Compound I-177, methyl 4-[(1S,4S,5R)-5-{[5-cyclopropyl-3-(2,6-dichlorophenyl)-1,2-oxazol-4-yl]methoxy}-2-azabicyclo[2.2.1]heptan-2-yl]-2-fluorobenzoate]",109,12.6,7.4,130
"O=C(O)c1cc(C2CCC2)c2nc(N3C[C@H]4C[C@@H]3C[C@@H]4OCc3c(-c4c(Cl)cccc4Cl)noc3C3CC3)sc2c1 [Compound I-284, 4-cyclobutyl-2-[(1R,4R,5S)-5-{[5-cyclopropyl-3-(2,6-dichlorophenyl)-1,2-oxazol-4-yl]methoxy}-2-azabicyclo[2.2.1]heptan-2-yl]-1,3-benzothiazole-6-carboxylic Acid]",100,3.16,9,116
"CC(C)c1cc(C(=O)O)cc2sc(N3C[C@@H]4C[C@H]3C[C@H]4OCc3c(-c4c(Cl)cccc4Cl)noc3C3CC3)nc12 [Compound I-247, 2-[(1S,4S,5R)-5-{[5-cyclopropyl-3-(2,6-dichlorophenyl)-1,2-oxazol-4-yl]methoxy}-2-azabicyclo[2.2.1]heptan-2-yl]-4-(propan-2-yl)-1,3-benzothiazole-6-carboxylic Acid]",114,2,8.5,128
"O=C(O)[C@@H]1CCc2cc(N3C[C@@H]4C[C@H]3C[C@H]4OCc3c(-c4c(Cl)cccc4Cl)noc3C3CC3)ccc2C1 (single isomer, unassigned) [Compound I-137]",106,10,8,132
"O=C(O)C1CC(c2ccc(N3C[C@@H]4C[C@H]3C[C@H]4OCc3c(-c4c(Cl)cccc4Cl)noc3C3CC3)cc2)C1 (stereo partly drawn) [Compound I-151, 3-{4-[(1S,4S,5R)-5-{[5-cyclopropyl-3-(2,6-dichlorophenyl)-1,2-oxazol-4-yl]methoxy}-2-azabicyclo[2.2.1]heptan-2-yl]phenyl}cyclobutane-1-carboxylic Acid]",106,25.1,8.6,134
"O=C(NS(=O)(=O)CCCCCCCCCCNC(=O)[C@H](O)[C@@H](O)[C@H](O)[C@H](O)CO)c1ccc(N2C[C@@H]3C[C@H]2C[C@H]3OCc2c(-c3c(Cl)cccc3Cl)noc2C2CC2)c(F)c1 [Compound I-223, (2R,3S,4R,5R)—N-{10-[({4-[(1S,4S,5R)-5-{[5-cyclopropyl-3-(2,6-dichlorophenyl)-1,2-oxazol-4-yl]methoxy}-2-azabicyclo[2.2.1]heptan-2-yl]-3-fluorophenyl}formamido)sulfonyl]decyl}-2,3,4,5,6-pentahydroxyhexanamide]",–,< 31.6,8.6,144
"O=C(O)c1cc(C2CCC2)c2nc(N3C[C@@H]4C[C@H]3C[C@H]4OCc3c(-c4c(Cl)cccc4Cl)noc3C3CC3)sc2c1 [Compound I-249, 4-cyclobutyl-2-[(1S,4S,5R)-5-{[5-cyclopropyl-3-(2,6-dichlorophenyl)-1,2-oxazol-4-yl]methoxy}-2-azabicyclo[2.2.1]heptan-2-yl]-1,3-benzothiazole-6-carboxylic Acid]",114,0.158,8.4,134
"O=C(O[C@@H]1C[C@@H]2C[C@H]1CN2c1ccc(-c2nn[nH]n2)cc1)c1c(-c2c(Cl)cccc2Cl)noc1C1CC1 [Compound I-50, (1S,4S,5R)-2-[4-(2H-1,2,3,4-tetrazol-5-yl)phenyl]-2-azabicyclo[2.2.1]heptan-5-yl 5-cyclopropyl-3-(2,6-dichlorophenyl)-1,2-oxazole-4-carboxylate]",109,15.8,6.8,184
"O=C(O)c1cc(C2CCCOCC2)c2nc(N3C[C@@H]4C[C@H]3C[C@H]4OCc3c(-c4c(Cl)cccc4Cl)noc3C3CC3)sc2c1 (stereo partly drawn) [Compound I-258, 2-[(1S,4S,5R)-5-{[5-cyclopropyl-3-(2,6-dichlorophenyl)-1,2-oxazol-4-yl]methoxy}-2-azabicyclo[2.2.1]heptan-2-yl]-4-(oxepan-4-yl)-1,3-benzothiazole-6-carboxylic Acid]",106,0.126,8.6,146
"O=C(O)c1ccc(N2C[C@@H]3C[C@H]2C[C@H]3OCc2c(-c3c(Cl)cccc3Cl)noc2C2CC2)nc1 [Compound I-55, 6-[(1S,4S,5R)-5-{[5-cyclopropyl-3-(2,6-dichlorophenyl)-1,2-oxazol-4-yl]methoxy}-2-azabicyclo[2.2.1]heptan-2-yl]pyridine-3-carboxylic Acid]",104,3.16,7.9,121
"O=C(O)CCCc1ccc(N2C[C@@H]3C[C@H]2C[C@H]3OCc2c(-c3c(Cl)cccc3Cl)noc2C2CC2)cc1 [Compound I-148, 4-{4-[(1S,4S,5R)-5-{[5-cyclopropyl-3-(2,6-dichlorophenyl)-1,2-oxazol-4-yl]methoxy}-2-azabicyclo[2.2.1]heptan-2-yl]phenyl}butanoic Acid]",117,20,7.8,136
"O=C(O)c1cc(F)c2nc(N3C[C@@H]4C[C@H]3C[C@H]4OC(=O)c3c(C45CCC(CC4)CC5)noc3C3CC3)sc2c1 [Compound I-11, 2-[(1S,4S,5R)-5-(3-{bicyclo[2.2.2]octan-1-yl}-5-cyclopropyl-1,2-oxazole-4-carbonyloxy)-2-azabicyclo[2.2.1]heptan-2-yl]-4-fluoro-1,3-benzothiazole-6-carboxylic Acid]",28,251,7.7,15
"O=C(NS(=O)(=O)C1CC1)c1ccc(N2C[C@H]3C[C@@H]2C[C@@H]3OCc2c(-c3c(Cl)cccc3Cl)noc2C2CC2)c(F)c1 [Compound I-231, 4-((1R,4R,5S)-5-((5-cyclopropyl-3-(2,6-dichlorophenyl)isoxazol-4-yl)methoxy)-2-azabicyclo[2.2.1]heptan-2-yl)-N-(cyclopropylsulfonyl)-3-fluorobenzamide]",106,15.8,8.4,110
"O=C(O)c1cc(C2CCC2)c2nc(N3C[C@@H]4C[C@H]3C[C@H]4OCc3c(C4CCC5(CC4)CC5)noc3C3CC3)sc2c1 [Compound I-282, 4-cyclobutyl-2-((1S,4S,5R)-5-((5-cyclopropyl-3-(spiro[2.5]octan-6-yl)isoxazol-4-yl)methoxy)-2-azabicyclo[2.2.1]heptan-2-yl)benzo[d]thiazole-6-carboxylic acid]",117,25.1,7.4,100
"O=C(O)c1ccc(C2CC2)cc1N1C(=O)[C@@H]2C[C@H]1C[C@H]2OCc1c(-c2c(Cl)cccc2Cl)noc1C1CC1 [Compound I-320, 4-cyclopropyl-2-[(1S,4R,5R)-5-{[5-cyclopropyl-3-(2,6-dichlorophenyl)-1,2-oxazol-4-yl]methoxy}-3-oxo-2-azabicyclo[2.2.1]heptan-2-yl]benzoic Acid]",110,20,7.5,114
"O=C(O)C1CN(Cc2ccc(N3C[C@@H]4C[C@H]3C[C@H]4OCc3c(-c4c(Cl)cccc4Cl)noc3C3CC3)cc2)C1 [Compound I-160, 1-({4-[(1S,4S,5R)-5-{[5-cyclopropyl-3-(2,6-dichlorophenyl)-1,2-oxazol-4-yl]methoxy}-2-azabicyclo[2.2.1]heptan-2-yl]phenyl}methyl)azetidine-3-carboxylic Acid]",110,1000,6.9,93
